System: TFEB
Test: High content TFEB-GFP nuclear translocation assay
Assay type: cell-based
Conditions: Homo sapiens; mobilization of cytosolic TFEB to the nucleus; TFEB-GFP HeLa cells, 3 h at 37° C. in RPMI, ten concentrations 50 μM to 2.54 nM, 4 runs; read-out: Average EC50
Experimental: Immunoblotting of protein extracts isolated from HeLa cells treated overnight, as indicated. Membranes were probed with antibodies for p-T202/Y204-ERK1/2, ERK1/2, p-T389-S6K, and S6K to measure ERK and mTORC1 activities. […] FLAG immunoblotting of cytosolic and nuclear fractions isolated from TFEB-3×FLAG HeLa cells cultured in amino acid-free media and subsequently stimulated as indicated for at least 3 h. Correct subcellular fractionation was verified with H3 and tubulin antibodies. […] After 3 h at 37° C. in RPMI medium containing one of each of the compounds, the cells were washed, fixed, and stained with DAPI and photographed by using confocal automated microscopy (Opera high content system, Perkin Elmer). […] Scale bars represent 30 μm. […] The EC50 for each compound was calculated using Prism software (see Materials and Methods for details). […] Antibody used were p-T389-S6K, S6K and FLAG. […] HeLa cells stably expressing Flag-3×TFEB were infected with lentiviruses encoding a Short hairpin (Sh-) RNA targeting luciferase (control) or RagC and RagD mRNAs. […] TFEB localization was detected with a FLAG antibody, whereas tubulin and H3 were used as controls for the cytosolic and nuclear fraction, respectively; levels of S6K phosphorylation were used to test RagC and RagD knockdown efficiency.
After 3 hours at 37° C. in RPMI medium cells were washed, fixed, and stained with DAPI. For the acquisition of the images, ten pictures per each well of the 384-well plate were taken by using confocal automated microscopy (Opera high content system, Perkin Elmer). A dedicated script was developed to perform the analysis of TFEB localization on the different images (Acapella software, Perkin Elmer). The script calculates the ratio value resulting from the average intensity of nuclear TFEB-GFP fluorescence divided by the average of the cytosolic intensity of TFEB-GFP fluorescence. The results were normalized using negative (RPMI medium) and positive (HBSS starvation) control samples in the same plate. The data are represented by the percentage of nuclear translocation at the different concentrations of each compound using Prism software (GraphPad software). The EC50 for each compound was calculated using non-linear regression fitting (Prism software).
In order to find additional small molecules able to induce the translocation of TFEB from the cytosol to the nucleus, the applicants developed a cell-based high content assay using stable HeLa cells overexpressing TFEB fused to the green fluorescent protein (TFEB-GFP). In the assay imaging of treated cells is acquired by an automated confocal microscope (OPERA system) and the analysis of those images with Acapella image software calculates the ratio of the average of fluorescence intensity of TFEB-GFP between the cytosol and nucleus of the cell (see Materials and methods for details). […] They tested ten concentrations for each inhibitor.

Row | EC50 [µM] | SMILES
1 | < 7 | Cc1ccc([N+](=O)[O-])cc1S(=O)(=O)N(C)/N=C/c1cnc2ccc(Br)cn12 [PIK75]
2 | < 7 | COc1cc2c(Oc3ccc4[nH]c(C)cc4c3F)ncnc2cc1OCCCN1CCCC1 [Cediranib (AZD2171), Cediranib]
3 | < 7 | CC(C)c1cnn2c(NCc3ccccc3)cc(NCCCCCCN)nc12 [BS181]
4 | < 7 | O=C1NC(=O)C(Cc2ccc3nccc(-c4ccncc4)c3c2)S1 (stereo not shown) [GSK1059615]
5 | > 15 | CO[C@H]1C[C@@H]2CC[C@@H](C)[C@@](O)(O2)C(=O)C(=O)N2CCCC[C@H]2C(=O)O[C@H]([C@H](C)C[C@@H]2CC[C@@H](OCCO)[C@H](OC)C2)CC(=O)[C@H](C)/C=C(\C)[C@@H](O)[C@@H](OC)C(=O)[C@H](C)C[C@H](C)/C=C/C=C/C=C/1C [Everolimus (RAD001), Everolimus]
6 | 7 to 15 | CN(C)Cc1cccc(N/C(=C2\C(=O)Nc3cc(C(=O)N(C)C)ccc32)c2ccccc2)c1 [BIX02189]
7 | < 7 | Cc1nc(N)sc1-c1ccnc(Nc2ccc(N3CCOCC3)cc2)n1 [CYC116]
8 | < 7 | COc1cc2nccc(Oc3ccc(NC(=O)Nc4ccc(F)cc4F)c(F)c3)c2cc1OC [Ki8751]
9 | 7 to 15 | NC1(c2ccc(-c3nc4ccn5c(=O)[nH]nc5c4cc3-c3ccccc3)cc2)CCC1 [MK-2206]
10 | < 7 | COc1cc2c(Nc3ccc(Br)cc3F)ncnc2cc1OCC1CCN(C)CC1 [Vandetanib]
11 | 7 to 15 | CO[C@H]1C[C@@H]2CC[C@@H](C)[C@@](O)(O2)C(=O)C(=O)N2CCCC[C@H]2C(=O)O[C@H]([C@H](C)C[C@@H]2CC[C@@H](OP(C)(C)=O)[C@H](OC)C2)CC(=O)[C@H](C)/C=C(\C)[C@@H](O)[C@@H](OC)C(=O)[C@H](C)C[C@H](C)/C=C/C=C/C=C/1C [Deforolimus]
12 | > 15 | O=C1c2ccccc2-c2n[nH]c3cccc1c23 [SP600125]
13 | < 7 | CCN1CCN(Cc2ccc(-c3cc4c(N[C@H](C)c5ccccc5)ncnc4[nH]3)cc2)CC1 [AEE788]
14 | < 7 | Nc1ncnc2c1c(-c1cccc(OCc3ccccc3)c1)cn2C1CC(CN2CCCC2)C1 (stereo in doubt) [NVP-ADW742]
15 | 7 to 15 | CCS(=O)(=O)Nc1ccc2c(c1)/C(=C(/Nc1ccc(CN3CCCCC3)cc1)c1ccccc1)C(=O)N2 [Hesperadin]
16 | < 7 | O=c1cc(-c2cccc3c2Sc2ccccc2S3)oc(N2CCOCC2)c1 [KU-55933]
17 | 7 to 15 | Nc1nc(Nc2ccc(S(N)(=O)=O)cc2)nn1C(=O)c1c(F)cccc1F [JNJ-7706621]
18 | > 15 | CNC(=O)c1ccc2c(c1)NC(=O)/C2=C(\Nc1cccc(CN(C)C)c1)c1ccccc1 [BIX 02188]
19 | < 7 | Cn1cc(C2=C(c3cn(C4CCN(Cc5ccccn5)CC4)c4ccccc34)C(=O)NC2=O)c2ccccc21 [Enzastaurin]
20 | < 7 | Cc1c[nH]c(-c2cnc(NCCNc3ccc(C#N)cn3)nc2-c2ccc(Cl)cc2Cl)n1 [CHIR99021]
21 | 7 to 15 | CO[C@H]1C[C@@H]2CC[C@@H](C)[C@@](O)(O2)C(=O)C(=O)N2CCCC[C@H]2C(=O)O[C@H]([C@H](C)C[C@@H]2CC[C@@H](OC(=O)C(C)(CO)CO)[C@H](OC)C2)CC(=O)[C@H](C)/C=C(\C)[C@@H](O)[C@@H](OC)C(=O)[C@H](C)C[C@H](C)/C=C/C=C/C=C/1C [Temsirolimus]
22 | < 7 | Cn1c(=O)n(-c2ccc(C(C)(C)C#N)cc2)c2c3cc(-c4cnc5ccccc5c4)ccc3ncc21 [NVP-BEZ235]
23 | < 7 | C[C@@H](Oc1cc(-n2cnc3ccc(CN4CCN(C)CC4)cc32)sc1C(N)=O)c1ccccc1C(F)(F)F [GSK461364]
24 | > 15 | C[C@@H]1CN(CC(=O)Nc2ccc3c(c2)Cc2cccc(-c4cc(=O)cc(N5CCOCC5)o4)c2S3)C[C@H](C)O1 [KU-60019]

Row | EC50 [µM] | SMILES
25 | < 7 | CC(C)(C)Cn1c(N)nc2ccc(-c3[nH]c(C(C)(C)C)nc3-c3ccc(F)cc3)nc21 [LY2228820]
26 | < 7 | Cc1ccc(S(=O)(=O)Nc2nc3ccccc3nc2Nc2ccc3nsnc3c2)cc1 [XL147]
27 | < 7 | COc1cc2c(Oc3ccc(NC(=O)C4(C(=O)Nc5ccc(F)cc5)CC4)cc3F)ccnc2cc1OCCCN1CCOCC1 [XL880 (GSK1363089)]
28 | < 7 | CN(C)c1ccc(-c2nc3c(N4CCN(CC(=O)Nc5nccs5)CC4)c(Cl)cnc3[nH]2)cc1 [CCT129202]
29 | 7 to 15 | COC(=O)Nc1ccc(-c2nc(N3CCOCC3)c3cnn(C4CCN(C(=O)OC)CC4)c3n2)cc1 [WYE354]
30 | < 7 | Clc1ccc(C2(c3ccc(-c4cn[nH]c4)cc3)CCNCC2)cc1 [AT7867]
31 | < 7 | CN(C)C/C=C/C(=O)Nc1cc2c(Nc3ccc(F)c(Cl)c3)ncnc2cc1O[C@H]1CCOC1 [BIBW2992 (Tovok)]
32 | < 7 | C=CC(=O)Nc1cc2c(Nc3ccc(F)c(Cl)c3)ncnc2cc1OCCCN1CCOCC1 [CI-1033]
33 | < 7 | CCC1=C[C@@H]2CN(C1)Cc1c([nH]c3ccccc13)[C@@](C(=O)OC)(c1cc3c(cc1OC)N(C)[C@H]1[C@@](O)(C(=O)OC)[C@H](OC(C)=O)[C@]4(CC)C=CCN5CC[C@]31[C@@H]54)C2 [Vinorelbine]
34 | < 7 | FC(F)c1nc2ccccc2n1-c1nc(N2CCOCC2)nc(N2CCOCC2)n1 [ZSTK474]
35 | 7 to 15 | C=CC(=O)Nc1cccc(Oc2nc(Nc3ccc(N4CCN(C)CC4)cc3OC)ncc2Cl)c1 [WZ4002]
36 | < 7 | Oc1cccc(-c2nc(N3CCOCC3)c3oc4ncccc4c3n2)c1 [PI103]
37 | < 7 | CCN(CC)CCNC(=O)c1c(C)[nH]c(/C=C2\C(=O)Nc3ccc(F)cc32)c1C [Sunitinib Malate]
38 | 7 to 15 | CN1CCN(CCOc2cc(OC3CCOCC3)c3c(Nc4c(Cl)ccc5c4OCO5)ncnc3c2)CC1 [AZD0530 (Saracatinib), Saracatinib]
39 | < 7 | Cc1cc(C(C)Nc2ccccc2)c2nc(N3CCOCC3)cc(=O)n2c1 (stereo not shown) [TGX 221]
40 | < 7 | C[C@@H](Oc1cc(-c2cnn(C3CCNCC3)c2)cnc1N)c1c(Cl)ccc(F)c1Cl [PF-02341066]
41 | 7 to 15 | Nc1nccc(Oc2ccc(NC(=O)c3c[nH]cc(-c4ccc(F)cc4)c3=O)cc2F)c1Cl [BMS 794833]
42 | < 7 | Cc1cc(Nc2cc(N3CCN(C)CC3)nc(/C=C/c3ccccc3)n2)n[nH]1 [ENMD-2076]
43 | < 7 | COc1cc(N2CCC(N3CCN(C)CC3)CC2)ccc1Nc1ncc(Cl)c(Nc2ccccc2S(=O)(=O)C(C)C)n1 [NVP-TAE684]
44 | < 7 | COc1ccc(-c2ccc3c(N4CCOCC4)nc(N4C[C@@H](C)O[C@@H](C)C4)nc3n2)cc1CO [KU0063794]
45 | < 7 | Cc1cc(Nc2cc(CN3CCOCC3)c3nc(C)c(Cc4ccc(Cl)cc4F)n3n2)[nH]n1 [LY2784544]
46 | > 15 | N#CC(=C(/N)Sc1ccccc1N)/C(C#N)=C(\N)Sc1ccccc1N [drawing 34]
47 | < 7 | CS(=O)(=O)CCNCc1ccc(-c2ccc3ncnc(Nc4ccc(OCc5cccc(F)c5)c(Cl)c4)c3c2)o1 [Lapatinib Ditosylate]

Row | SMILES | EC50 [µM]
48 | CC[C@@H]1C(=O)N(C)c2cnc(Nc3ccc(C(=O)NC4CCN(C)CC4)cc3OC)nc2N1C1CCCC1 [BI2536] | < 7
49 | O=C(NOC[C@H](O)CO)c1ccc(F)c(F)c1Nc1ccc(I)cc1F [PD0325901] | > 15
50 | CCN1CCN(C(=O)Cc2ccc(Nc3ncc(F)c(Nc4ccc(C(=O)Nc5ccccc5Cl)cc4)n3)cc2)CC1 [Aurora A inhibitor 1] | < 7
51 | Cc1ccc(C(=O)Nc2ccc(CN3CCN(C)CC3)c(C(F)(F)F)c2)cc1C#Cc1cnc2cccnn12 [AP24534] | < 7
52 | CCOc1cc2ncc(C#N)c(Nc3ccc(OCc4ccccn4)c(Cl)c3)c2cc1NC(=O)/C=C/CN(C)C [Neratinib] | > 15

— US20140038920A1, “TFEB PHOSPHORYLATION INHIBITORS AND USES THEREOF” (FONDAZIONE TELETHON, priority 2011, published 2014)
